Laboratory results published in patent US12441768B2, “Compositions and methods for treating endometriosis” (EndoMet Biosciences, Inc., priority 2018, dated 2025).
Where a SMILES comes first, the peptide text is derived from it.

What was measured:
[1] = biological target: Wnt-responsive promoter (TCF/LEF); experiment: Wnt-dependent luciferase reporter assay; format: cell-based, murine
Procedure, shortened: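 Murine 3T3 fibroblasts carrying a TCF/LEF-driven luciferase reporter, stimulated with Wnt3a in the presence of increasing peptide concentrations or vehicle. Luminescence inhibition gave EC50 values in uM.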

β-catenin = biological target: T1, β-catenin (Homo sapiens, UniProt P35222); experiment: KD50 measurement using competitive fluorescence polarization (FP) with labelled TCF4; format: binding; settings: fluorescence polarization, β-catenin; for Kd: read-out: β-Cat FP KD
T1 sequence (P35222 1-781): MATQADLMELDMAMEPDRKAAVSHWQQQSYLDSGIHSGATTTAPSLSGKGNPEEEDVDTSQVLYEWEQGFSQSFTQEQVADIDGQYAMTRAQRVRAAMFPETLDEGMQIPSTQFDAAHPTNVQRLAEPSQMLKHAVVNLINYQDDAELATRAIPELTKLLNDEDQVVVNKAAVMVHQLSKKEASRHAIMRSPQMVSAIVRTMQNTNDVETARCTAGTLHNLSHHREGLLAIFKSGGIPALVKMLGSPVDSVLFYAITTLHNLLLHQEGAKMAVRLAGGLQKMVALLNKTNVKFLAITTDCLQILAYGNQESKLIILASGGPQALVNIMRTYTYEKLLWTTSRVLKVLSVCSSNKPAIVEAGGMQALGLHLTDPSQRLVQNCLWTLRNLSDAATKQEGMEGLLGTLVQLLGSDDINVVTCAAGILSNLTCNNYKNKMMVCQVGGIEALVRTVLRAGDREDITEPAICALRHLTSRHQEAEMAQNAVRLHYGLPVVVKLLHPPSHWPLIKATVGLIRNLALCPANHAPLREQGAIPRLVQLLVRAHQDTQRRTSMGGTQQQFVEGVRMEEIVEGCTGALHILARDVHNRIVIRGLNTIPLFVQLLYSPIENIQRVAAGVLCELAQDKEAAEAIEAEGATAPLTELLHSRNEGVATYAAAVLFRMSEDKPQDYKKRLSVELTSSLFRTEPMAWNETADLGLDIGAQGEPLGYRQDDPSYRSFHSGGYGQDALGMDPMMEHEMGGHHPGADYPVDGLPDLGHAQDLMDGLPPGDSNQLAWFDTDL
Procedure, shortened: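 Labelled TCF4 (5 nM) mixed with 100 nM β-catenin at room temperature; inhibitor added as serial dilutions from 10 nM to 30 uM. Polarization read at excitation 470 nm/emission 520 nm; binding displacement lowers polarization. Three independent runs.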

[2] = % Viability non-Wnt responsive cells

| Structure (SMILES) | EC50 [1] | Kd (β-catenin) | viability [2] | β-Cat FP Hill slope (β-catenin) |
| --- | --- | --- | --- | --- |
| CC[C@H](C)[C@H](NC(=O)[C@H](CC(C)C)NC(=O)[C@H](Cc1ccccc1)NC(=O)[C@H](Cc1c[nH]c2ccccc12)NC(=O)[C@@H](N)CCSC)C(=O)N[C@@H](CO)C(=O)N[C@@H](Cc1ccccc1)C(=O)N[C@@H](Cc1c[nH]c2ccccc12)C(=O)N[C@@H](CCCNC(=N)N)C(=O)NCC(=O)O [compound 49] (H-MWFLISFWRG-OH) | < 7.5 µM | > 30 µM | 103% |  |
| CC[C@H](C)[C@H](NC(=O)[C@H](CC(C)C)NC(=O)[C@H](Cc1ccccc1)NC(=O)[C@H](C)N(C)C(=O)[C@H](CCSC)NC(=O)[C@H](CCCNC(=N)N)NC(=O)[C@H](CO)NC(=O)[C@@H](N)CCSC)C(=O)N[C@@H](CO)C(=O)N[C@@H](Cc1ccccc1)C(=O)N[C@@H](Cc1c[nH]c2ccccc12)C(=O)NCC(=O)O [compound 50] (HELM PEPTIDE1{M.S.R.M.[meA].F.L.I.S.F.W.G}$$$$V2.0) | > 30 µM | 1 to 10 µM | 96.7% | 0.76 |
| CC[C@H](C)[C@H](NC(=O)[C@H](CC(C)C)NC(=O)[C@H](Cc1ccccc1)NC(=O)[C@H](CC(C)C)NC(=O)[C@H](CCSC)NC(=O)[C@H](CCCNC(=N)N)NC(=O)[C@H](CO)NC(=O)[C@@H](N)CCSC)C(=O)N[C@@H](CO)C(=O)N[C@@H](Cc1ccccc1)C(=O)N[C@@H](Cc1c[nH]c2ccccc12)C(=O)NCC(=O)O [compound 52] (H-MSRMLFLISFWG-OH) | 15 to 22.5 µM | > 30 µM | 87.2% |  |
| CC[C@H](C)[C@H](NC(=O)[C@H](CC(C)C)NC(=O)[C@H](Cc1ccccc1)NC(=O)[C@H](Cc1c[nH]c2ccccc12)N(C)C(=O)[C@H](CCSC)NC(=O)[C@H](CCCNC(=N)N)NC(=O)[C@@H](NC(=O)[C@@H](N)CCSC)[C@@H](C)CC)C(=O)N[C@@H](CO)C(=O)N[C@@H](Cc1ccccc1)C(=O)N[C@@H](Cc1c[nH]c2ccccc12)C(=O)NCC(=O)O [compound 53] (HELM PEPTIDE1{M.I.R.M.[meW].F.L.I.S.F.W.G}$$$$V2.0) | > 30 µM | > 30 µM | 103% |  |
| CC[C@H](C)[C@H](NC(=O)[C@H](CC(C)C)NC(=O)[C@H](Cc1ccccc1)NC(=O)[C@H](Cc1c[nH]c2ccccc12)NC(=O)[C@H](CCSC)NC(=O)[C@H](CCCNC(=N)N)NC(=O)[C@H](CO)NC(=O)[C@@H](N)CCSC)C(=O)N[C@@H](CO)C(=O)N[C@@H](CO)C(=O)N[C@@H](Cc1c[nH]c2ccccc12)C(=O)NCC(=O)O [compound 54] (H-MSRMWFLISSWG-OH) | 15 to 22.5 µM | 1 to 10 µM | 98.3% | 0.7 |
| CC[C@H](C)[C@H](NC(=O)[C@H](CC(C)C)NC(=O)[C@H](Cc1ccccc1)NC(=O)[C@H](Cc1c[nH]c2ccccc12)NC(=O)[C@@H](NC(=O)[C@H](CCCNC(=N)N)NC(=O)[C@H](CO)NC(=O)[C@@H](N)CCSC)[C@@H](C)CC)C(=O)N[C@@H](CO)C(=O)N[C@@H](Cc1ccccc1)C(=O)N[C@@H](Cc1c[nH]c2ccccc12)C(=O)NCC(=O)O [compound 55] (H-MSRIWFLISFWG-OH) | < 7.5 µM | > 30 µM | 101% |  |
| CSCC[C@H](NC(=O)[C@H](CCCNC(=N)N)NC(=O)[C@H](CO)NC(=O)[C@@H](N)CCSC)C(=O)N[C@@H](Cc1c[nH]c2ccccc12)C(=O)N[C@@H](Cc1ccccc1)C(=O)N[C@@H](CC(C)C)C(=O)N[C@H](C(=O)N[C@@H](CO)C(=O)N[C@@H](Cc1ccccc1)C(=O)N[C@@H](Cc1c[nH]c2ccccc12)C(=O)NCC(=O)O)C(C)C [compound 56] (H-MSRMWFLVSFWG-OH) | 7.5 to 15 µM | > 30 µM | 100% |  |
| CC[C@H](C)[C@H](NC(=O)[C@H](CC(C)C)NC(=O)[C@H](Cc1ccccc1)NC(=O)[C@H](Cc1c[nH]c2ccccc12)NC(=O)[C@H](CCSC)NC(=O)[C@H](CCCNC(=N)N)NC(=O)[C@H](CO)NC(=O)[C@@H](N)CCSC)C(=O)N[C@@H](CO)C(=O)N[C@@H](Cc1ccccc1)C(=O)N[C@@H](Cc1c[nH]c2ccccc12)C(=O)N[C@@H](CCC(=O)O)C(=O)NCC(=O)O [compound 57] (H-MSRMWFLISFWEG-OH) | < 7.5 µM | 1 to 10 µM | 104% | 0.7 |
| CC[C@H](C)[C@H](NC(=O)[C@H](CC(C)C)NC(=O)[C@H](Cc1ccccc1)NC(=O)[C@H](Cc1c[nH]c2ccccc12)NC(=O)[C@H](CCSC)NC(=O)[C@H](CCCNC(=N)N)NC(=O)[C@H](CO)NC(=O)[C@@H](N)CCSC)C(=O)N[C@@H](CO)C(=O)N[C@@H](Cc1ccccc1)C(=O)N[C@@H](Cc1c[nH]c2ccccc12)C(=O)N[C@@H](CCCNC(=N)N)C(=O)NCC(=O)O [compound 58] (H-MSRMWFLISFWRG-OH) | 22.5 to 30 µM | > 30 µM | 106% |  |
| CC[C@H](C)[C@H](NC(=O)[C@H](CC(C)C)NC(=O)[C@H](Cc1ccccc1)NC(=O)[C@H](Cc1c[nH]c2ccccc12)NC(=O)[C@H](CCCCN)NC(=O)[C@H](CCCNC(=N)N)NC(=O)[C@H](CO)NC(=O)[C@@H](N)CCSC)C(=O)N[C@@H](CO)C(=O)N[C@@H](Cc1ccccc1)C(=O)N[C@@H](Cc1c[nH]c2ccccc12)C(=O)NCC(=O)O [compound 59] (H-MSRKWFLISFWG-OH) | > 30 µM | > 30 µM | 102% |  |
| CC[C@H](C)[C@H](NC(=O)[C@H](CC(C)C)NC(=O)[C@H](CC(C)C)NC(=O)[C@H](Cc1c[nH]c2ccccc12)NC(=O)[C@H](CCSC)NC(=O)[C@H](CCCNC(=N)N)NC(=O)[C@H](CO)NC(=O)[C@@H](N)CCSC)C(=O)N[C@@H](CO)C(=O)N[C@@H](Cc1ccccc1)C(=O)N[C@@H](Cc1c[nH]c2ccccc12)C(=O)NCC(=O)O [compound 60] (H-MSRMWLLISFWG-OH) | 7.5 to 15 µM | > 30 µM | 101% |  |
| CC[C@H](C)[C@H](NC(=O)[C@H](CC(C)C)NC(=O)[C@H](Cc1ccccc1)NC(=O)[C@H](Cc1c[nH]c2ccccc12)NC(=O)[C@H](CCSC)NC(=O)[C@H](CCCNC(=N)N)NC(=O)[C@H](CC(N)=O)NC(=O)[C@@H](N)CCSC)C(=O)N[C@@H](CO)C(=O)N[C@@H](Cc1ccccc1)C(=O)N[C@@H](Cc1c[nH]c2ccccc12)C(=O)NCC(=O)O [compound 61] (H-MNRMWFLISFWG-OH) | 7.5 to 15 µM | > 30 µM | 100% |  |
| CSCC[C@H](NC(=O)[C@H](CCCNC(=N)N)NC(=O)[C@H](CO)NC(=O)[C@@H](N)CCSC)C(=O)N[C@@H](Cc1c[nH]c2ccccc12)C(=O)N[C@@H](Cc1ccccc1)C(=O)N[C@@H](CC(C)C)C(=O)N[C@H](C(=O)N[C@@H](CO)C(=O)N[C@@H](Cc1ccccc1)C(=O)N[C@@H](Cc1c[nH]c2ccccc12)C(=O)NCC(=O)O)[C@@H](C)O [compound 62] (H-MSRMWFLTSFWG-OH) | > 30 µM | > 30 µM | 104% |  |
| CSCC[C@H](NC(=O)[C@H](CCCNC(=N)N)NC(=O)[C@H](CO)NC(=O)[C@@H](N)CCSC)C(=O)N[C@@H](Cc1c[nH]c2ccccc12)C(=O)N[C@@H](Cc1ccccc1)C(=O)N[C@@H](CC(C)C)C(=O)N[C@@H](Cc1ccccc1)C(=O)N[C@@H](CO)C(=O)N[C@@H](Cc1ccccc1)C(=O)N[C@@H](Cc1c[nH]c2ccccc12)C(=O)NCC(=O)O [compound 63] (H-MSRMWFLFSFWG-OH) | < 7.5 µM | > 30 µM | 97.9% |  |
| CC[C@H](C)[C@H](NC(=O)[C@H](CC(C)C)NC(=O)[C@H](Cc1ccccc1)NC(=O)[C@H](Cc1c[nH]c2ccccc12)NC(=O)[C@@H](NC(=O)[C@H](CCCNC(=N)N)NC(=O)[C@H](CO)NC(=O)[C@@H](N)CCSC)C(C)C)C(=O)N[C@@H](CO)C(=O)N[C@@H](Cc1ccccc1)C(=O)N[C@@H](Cc1c[nH]c2ccccc12)C(=O)NCC(=O)O [compound 64] (H-MSRVWFLISFWG-OH) | 7.5 to 15 µM | 1 to 10 µM | 104% | 0.7 |
| CC[C@H](C)[C@H](NC(=O)[C@@H]1CCCN1C(=O)[C@H](Cc1ccccc1)NC(=O)[C@H](Cc1c[nH]c2ccccc12)NC(=O)[C@H](CCSC)NC(=O)[C@H](CCCNC(=N)N)NC(=O)[C@H](CO)NC(=O)[C@@H](N)CCSC)C(=O)N[C@@H](CO)C(=O)N[C@@H](Cc1ccccc1)C(=O)N[C@@H](Cc1c[nH]c2ccccc12)C(=O)NCC(=O)O [compound 65] (H-MSRMWFPISFWG-OH) | > 30 µM | 1 to 10 µM | 105% | 0.7 |
